Assay results published in publication PMC9117288, “Origins of glycan selectivity in streptococcal Siglec-like adhesins suggest mechanisms of receptor adaptation” (Nature Communications, 2022).
≈ marks a conversion by molar mass, not a printed value. Where two headings read alike, the source gives them in different places.

Assays:
SLBRHsa [1] = target: T1, SLBRHsa (Streptococcus gordonii, UniProt A8AWU7); type: binding; design: gene hsa; conditions: labelled compound (biotinylated glycan); 500 nM immobilized GST-SLBR
T1 sequence (A8AWU7 220-453): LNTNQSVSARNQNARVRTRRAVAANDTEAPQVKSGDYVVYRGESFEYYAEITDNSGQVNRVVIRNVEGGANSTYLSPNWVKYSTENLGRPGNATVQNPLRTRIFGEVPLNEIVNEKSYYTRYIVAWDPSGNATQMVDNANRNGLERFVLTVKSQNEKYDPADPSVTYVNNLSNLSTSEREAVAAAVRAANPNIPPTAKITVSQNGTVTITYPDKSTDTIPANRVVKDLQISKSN

SLBRGspB [2] = target: T2, SLBRGspB (Streptococcus gordonii, UniProt Q939N5); test: ELISA, immobilized GST-SLBR; type: binding; conditions: labelled compound (biotinylated glycan)
T2 construct: gene gspB
T2 sequence (Q939N5 245-604): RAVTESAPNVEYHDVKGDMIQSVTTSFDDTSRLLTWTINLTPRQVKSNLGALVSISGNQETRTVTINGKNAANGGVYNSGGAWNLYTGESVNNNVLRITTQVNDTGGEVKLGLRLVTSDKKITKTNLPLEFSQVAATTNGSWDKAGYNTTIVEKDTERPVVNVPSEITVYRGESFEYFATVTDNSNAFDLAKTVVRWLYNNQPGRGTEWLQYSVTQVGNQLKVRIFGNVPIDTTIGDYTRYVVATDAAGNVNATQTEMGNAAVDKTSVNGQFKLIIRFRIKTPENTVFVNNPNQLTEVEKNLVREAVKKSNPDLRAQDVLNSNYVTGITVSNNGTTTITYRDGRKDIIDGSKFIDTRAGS

SLBRGspB [3] = target: T2, SLBRGspB; design: ELISA, binding of biotinylated glycans to immobilized GST-SLBR (500 nM), absorbance at 450 nm; conditions: biotinylated glycan, binder
SLBRSK678 = test: ELISA, immobilized GST-SLBR; design: species or system Streptococcus sanguinis; conditions: labelled compound (biotinylated glycan); 500 nM immobilized GST-SLBR
SLBRHsa [4] = target: T1, SLBRHsa; design: gene hsa; ELISA: GST fusion (pGEX-3X); crystals: His6-MBP tag cleaved with thrombin; E. coli; conditions: binder
SLBRUB10712 = test: ELISA, immobilized GST-SLBR; design: species or system Streptococcus gordonii; conditions: labelled compound (biotinylated glycan); 500 nM immobilized GST-SLBR

SMILES	EC50 (SLBRHsa [1])	EC50 (SLBRSK678)	EC50 (SLBRUB10712)	other results
CC(=O)N[C@H]1[C@H]([C@H](O)[C@H](O)CO)O[C@@](O[C@H]2[C@@H](O)[C@@H](CO)O[C@@H](O[C@H]3[C@@H](O)[C@@H](CO)OC(O)[C@@H]3NC(C)=O)[C@@H]2O)(C(=O)O)C[C@@H]1O (stereo partly shown) [sialyl-T antigen]	178 nM	–	–	ELISA, immobilized GST-SLBR (SLBRGspB [2]): recapitulated here by ELISA showing concentration-dependent binding; EC50 (SLBRGspB [3]; read-out: sTa): 0.119 µM
CC(=O)N[C@H]1[C@H]([C@H](O)[C@H](O)CO)O[C@@](O[C@H]2[C@@H](O)[C@@H](CO)O[C@@H](O[C@H]3[C@H](O)[C@@H](CO)OC(O)[C@@H]3NC(C)=O)[C@@H]2O)(C(=O)O)C[C@@H]1O (stereo partly shown) [sialyl Lewis^C]	993 nM	–	–	EC50 (SLBRGspB [3]; read-out: sLe^C): > 7.41 µM
CC(=O)N[C@H]1[C@H]([C@H](O)[C@H](O)CO)O[C@@](O[C@H]2[C@@H](O)[C@@H](CO)O[C@@H](O[C@H]3[C@H](O[C@@H]4O[C@@H](C)[C@@H](O)[C@@H](O)[C@@H]4O)[C@@H](NC(C)=O)C(O)O[C@@H]3COS(=O)(=O)O)[C@@H]2O)(C(=O)O)C[C@@H]1O (stereo partly shown) [6-O-sulfo-sialyl Lewis X]	–	0.63 ± 0.36 µg/mL (≈ 0.699 µM)	0.14 ± 0.10 µg/mL (≈ 0.155 µM)	EC50 (SLBRHsa [4]; read-out: 6S-sLe^X): > 5.55 µM
CC(=O)N[C@H]1[C@H]([C@H](O)[C@H](O)CO)O[C@@](O[C@H]2[C@@H](O)[C@@H](CO)O[C@@H](O[C@H]3[C@H](O)[C@@H](NC(C)=O)C(O)O[C@@H]3CO)[C@@H]2O)(C(=O)O)C[C@@H]1O (stereo partly shown) [3’-sialyl-N-acetyllactosamine]	2390 nM	0.90 ± 0.51 µg/mL (≈ 1.33 µM)	0.13 ± 0.19 µg/mL (≈ 0.193 µM)	EC50 (SLBRGspB [3]; read-out: 3'sLn): > 7.41 µM
CC(=O)N[C@H]1[C@H]([C@H](O)[C@H](O)CO)O[C@@](O[C@H]2[C@@H](O)[C@@H](CO)O[C@@H](O[C@@H]([C@H](O[C@@H]3O[C@@H](C)[C@@H](O)[C@@H](O)[C@@H]3O)[C@H](C=O)NC(C)=O)[C@H](O)CO)[C@@H]2O)(C(=O)O)C[C@@H]1O [sLe^X, sialyl Lewis X]	–	–	–	EC50 (SLBRHsa [4]; read-out: sLe^X): > 6.09 µM
